Test results as given in patent US10981858B2, “Dendrimer and formulations thereof” (Priostar Pty Ltd, priority 2015, dated 2021).

Assay: Solubilization of water insoluble surfactant Ethoxylated Lauryl alcohol-3 M in LA-9 solution
Type: physicochemical
Conditions: for Quantity LA-3 added to LA-9 solution: 50 g, until hazy
Protocol: 5% w/w aqueous solution of Ethoxylated Lauryl alcohol-9 mole (water soluble surfactant) was prepared in Deionized water (2.5 g in 47.5 ml). Dendrimer compounds 1 and 4 were diluted 70:30 w/w in Diethylene glycol. The 5% Ethoxylated Lauryl alcohol-9 M (LA-9) solution was combined with dendrimer DEG solution at 90:10, 80:20 and 70:30 w/w (total weight 50 g).
Ethoxylated lauryl alcohol-3 mole (water insoluble surfactant) was added dropwise, while stirring, to the 50 g LA-9 solution (with or without dendrimer), until it became hazy. The weight of Ethoxylated lauryl alcohol-3 M added was recorded.

OCCN(CCO)CC(O)COCC(COCC(O)CN(CCO)CCO)(COCC(O)CN(CCO)CCO)COCC(COCC(O)CN(CCO)CCO)(COCC(O)CN(CCO)CCO)COCC(O)CN(CCO)CCO (stereo not shown) [Compound 4, 9,9′-(Oxybis(methylene))bis(9-((3-(bis(2-hydroxyethyl)amino)-2-hydroxypropoxy)methyl)-3,15-bis(2-hydroxyethyl)-7,11-dioxa-3,15-diazaheptadecane-1,5,13,17-tetraol)]
Quantity LA-3 added to LA-9 solution (ratio 5% LA-9 solution:dendrimer/DEG solution 70:30 (w/w), 21% dendrimer (w/w)): 2.01 g
Quantity LA-3 added to LA-9 solution (ratio 5% LA-9 solution:dendrimer/DEG solution 80:20 (w/w), 14% dendrimer (w/w)): 2.86 g
Quantity LA-3 added to LA-9 solution (ratio 5% LA-9 solution:dendrimer/DEG solution 90:10 (w/w), 7% dendrimer (w/w)): 2.11 g
Increase in solubilisation of Ethoxylated lauryl alcohol-3 M (over LA-9 without dendrimer): 72%
